Reference: ChEMBL document CHEMBL1212716, “Impact of linker strain and flexibility in the design of a fragment-based inhibitor” (Nat Chem Biol, 2009)

Tests used:
Uracil-DNA glycosylase [1] = biological target: T1, Uracil-DNA glycosylase (Homo sapiens, UniProt P13051); assay: Inhibition of human uracil DNA glycosylase using fluorescent DNA substrate
Uracil-DNA glycosylase [2] = biological target: T1, Uracil-DNA glycosylase; assay: Inhibition of human uracil DNA glycosylase at […] using fluorescent DNA substrate

T1 sequence (P13051 whole entry): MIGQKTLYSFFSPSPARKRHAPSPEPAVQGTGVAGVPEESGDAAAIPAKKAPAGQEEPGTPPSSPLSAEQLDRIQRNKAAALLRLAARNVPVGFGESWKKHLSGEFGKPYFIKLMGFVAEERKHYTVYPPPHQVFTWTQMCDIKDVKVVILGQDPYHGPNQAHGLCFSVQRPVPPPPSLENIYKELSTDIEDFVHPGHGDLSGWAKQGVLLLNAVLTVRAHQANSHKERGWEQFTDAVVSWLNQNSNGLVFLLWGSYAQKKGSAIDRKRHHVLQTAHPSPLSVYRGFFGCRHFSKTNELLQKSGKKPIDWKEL

Row | Structure (SMILES) | Ki (Uracil-DNA glycosylase [1]) [mM] | inhibition (Uracil-DNA glycosylase [2]) [%]
1 | O=Cc1cccc(C(=O)O)c1 [3-FORMYLBENZOIC ACID] | 10 | 
2 | NCCCO/N=C/c1cc(=O)[nH]c(=O)[nH]1 | 0.75 | 
3 | NCCCO/N=C/c1cccc(C(=O)O)c1 | 10 | 25
4 | NOCCCNCc1cc(=O)[nH]c(=O)[nH]1 | 0.7 | 
5 | NOCCCNCc1cccc(C(=O)O)c1 | 16 | 18
